Data on 22 molecules can be found in patent publication US9115148B2, “Spirocyclic derivatives as histone deacetylase inhibitors” (DAC S.R.L., priority 2008, dated 2015).

A value given as a limit tells only on which side of the number the result lay.

For one test, the system named is HCT-116 cells. The experiment in a line: Cell growth, CellTiter-Glo Luminescent Cell Viability Assay, HCT-116. The note with it: Homo sapiens, HCT116 cells, 72 h incubation, read-out: IC50 antiproliferative assay HCT116. It counts as cell-based. The source says:
(§1) CellTiter-Glo® Luminescent Cell Viability Assay (Promega) is a homogeneous method of determining the number of viable cells in culture based on quantitation of the present ATP, which indicates the presence of metabolically active cells. The homogeneous assay procedure involves addition of a single reagent (CellTiter-Glo® Reagent) directly to the cells, which leads to cell lysis and generation of a luminescent signal proportional to the amount of the ATP and the number of cells present in culture. The assay relies on the properties of a proprietary thermostable luciferase (Ultra-Glo® recombinant luciferase), which generates a luminescent signal.
(§2) K562, A549 and HCT-116 cells, in exponential growth, were incubated for 72 h with different concentrations of the inhibitors. After 72 h, a volume of CellTiter-Glo® Reagent equal to the volume of cell culture medium was added. The content was mixed for 2 min to induce cell lysis. The luminescence was recorded after further 10 min at RT in order to obtain a stabilized luminescent signal.
(§3) The IC50 was calculated using GraphPad Software.
(§4) IC50 results were allocated to one of 3 ranges as follows: Range A: IC50≦1.0 μM; Range B: from 1.0 to 3.0 μM; Range C: IC50≧3.0 μM.
(Cellular ATP, detected with luciferase, serves as a proxy for viable cell number.)

In a further test the test system is A549 cells. In words: Cell growth, CellTiter-Glo Luminescent Cell Viability Assay, A549. It is filed as cell-based. The note with it: Homo sapiens, 72 h incubation, read-out: IC50 antiproliferative assay A549.
Text: as §1, §2, §3, §4

A further test relates to K562 cells. The experiment in a line: Cell growth, CellTiter-Glo Luminescent Cell Viability Assay, K562. It is filed as cell-based. As to conditions: Homo sapiens, 72 h incubation, read-out: IC50 antiproliferative assay K562.
Text: as §1, §2, §3, §4

Test [1] has as its system HDAC (nuclear fraction of Hela cells). In words: Assay of enzyme inhibition of HDAC (BIOMOL Kit). It is filed as biochemical. As to conditions: substrate 200 μM, 15 min at RT. On the procedure:
2.2 Assay of Enzyme Inhibition of HDAC
The in-vitro activity of HDAC inhibitors was assayed using a BIOMOL Kit, according to the instructions from the manufacturer (Biomolecular Research Laborator). 15 μl of 30× diluted nuclear fraction of Hela cells, was diluted to 50 μl with the assay buffer containing the HDAC inhibitor and the substrate (lysine with acetylated amino group on the side chain) at a concentration of 200 μM. The samples were incubated for 15 min at RT and then exposed to a developer (10 min at RT). In this last step a fluorophore was produced, whose fluorescence was measured using an excitation wavelength of 355 nm and an emission at 460 nm. The IC50 was calculated using GraphPad Software.

A word on the IC50: it is the concentration that gives 50% inhibition. `Cc1ccccc1CN1CCC2(CC1)CC(=O)c1cc(/C=C/C(=O)NO)ccc1O2` [Example 28, (E)-3-{1′-(2-Methyl-benzyl)-4-oxo-spiro[chromane-2,4′-piperidine]-6-yl}-N-hydroxy-acrylamide]: the IC50 was 1000 to 3000 nM in the test with HCT-116 cells, 1000 to 3000 nM in the test with A549 cells, ≤ 1000 nM with K562 cells and 100 to 1000 nM in test [1].

Regarding `O=C(/C=C/c1ccc2c(c1)C(=O)CC1(CCN(c3ncccn3)CC1)O2)NO` [Example 27, (E)-3-{1′-Pyrimidin-2-yl-4-oxo-spiro[chromane-2,4′-piperidine]-6-yl}-N-hydroxy-acrylamide], the IC50 with HCT-116 cells was 1000 to 3000 nM; with A549 cells, ≥ 3000 nM; in the test on K562 cells, ≥ 3000 nM; in test [1] it was 100 to 1000 nM.

For the molecule `O=C(/C=C/c1ccc2c(c1)C(=O)C1(CCNCC1)O2)NO` [Example 20, (E)-3-{3-oxo-spiro[benzofuran-2(3H), 4′-piperidin]-5-yl}-N-hydroxy-acrylamide], the IC50 in the test with HCT-116 cells was ≤ 1000 nM; in the test with A549 cells it was 1000 to 3000 nM; with K562 cells it was 1000 to 3000 nM; in test [1], 100 to 1000 nM.

Turning to `CCOC(=O)N1CCC2(CC1)Oc1ccc(/C=C/C(=O)NO)cc1C2=O` [Example 24, (E)-3-{1′-Ethyloxycarbonyl-3-oxo-spiro[benzofuran-2(3H), 4′-piperidin]-5-yl}-N-hydroxy-acrylamide], the IC50 is ≥ 3000 nM in the test on HCT-116 cells, ≥ 3000 nM with A549 cells, 1000 to 3000 nM in the test with K562 cells and > 1000 nM in test [1].

`O=C(/C=C/c1ccc2c(c1)C(=O)CC1(CCN(Cc3c[nH]c4ccccc34)CC1)O2)NO` [Example 50]: the IC50 with HCT-116 cells was ≤ 1000 nM; with A549 cells it was ≤ 1000 nM; in the test with K562 cells, ≤ 1000 nM; in test [1] it was < 100 nM.

Turning to `CCN1CCC2(CC1)CC(=O)c1cc(/C=C/C(=O)NO)ccc1O2` [Example 68, (E)-3-{1′-Ethyl-4-oxo-spiro[chromane-2,4′-piperidine]-6-yl}-N-hydroxy-acrylamide], the IC50 with HCT-116 cells was ≤ 1000 nM; in the test with A549 cells, ≤ 1000 nM; with K562 cells, ≤ 1000 nM; in test [1], < 100 nM.

For the molecule `O=C(/C=C/c1ccc2c(c1)C(=O)CC1(CCN(Cc3ccccn3)CC1)O2)NO` [Example 40, (E)-3-{1′-(Pyridin-2-ylmethyl)-4-oxo-spiro[chromane-2,4′-piperidine]-6-yl}-N-hydroxy-acrylamide], the IC50 in the test on HCT-116 cells was ≤ 1000 nM; with A549 cells, 1000 to 3000 nM; in the test on K562 cells, ≤ 1000 nM; in test [1] it was 100 to 1000 nM.

For the molecule `CN1CCC2(CC1)CC(=O)c1cc(/C=C/C(=O)NO)ccc1O2` [Example 5, (E)-3-{1′-Methyl-4-oxo-spiro[chromane-2,4′-piperidine]-6-yl}-N-hydroxy-acrylamide], the IC50 with HCT-116 cells is ≤ 1000 nM; with A549 cells, 1000 to 3000 nM; in the test on K562 cells it was ≤ 1000 nM; in test [1], 100 to 1000 nM.

On to `O=C(/C=C/c1ccc2c(c1)C(=O)NC1(CCN(CCc3ccccc3)CC1)O2)NO` [Example 71, (E)-3-{1′-(2-Phenyl-ethyl)-3,4-dihydro-4-oxo-spiro[2H-(1,3)-benzoxazine-2,4′-piperidin]-6-yl}-N-hydroxy-acrylamide], for which the IC50 in the test on HCT-116 cells was ≤ 1000 nM; in the test with A549 cells, 1000 to 3000 nM; with K562 cells it was ≤ 1000 nM; in test [1] it was < 100 nM.

For `O=C(/C=C/c1ccc2c(c1)C(=O)CC1(CCN(CCCc3ccccc3)CC1)O2)NO` [Example 45, (E)-3-{1′-(3-Phenyl-propyl)-4-oxo-spiro[chromane-2,4′-piperidine]-6-yl}-N-hydroxy-acrylamide], the IC50 was ≤ 1000 nM in the test with HCT-116 cells, 1000 to 3000 nM in the test with A549 cells, ≤ 1000 nM in the test on K562 cells and 100 to 1000 nM in test [1].

As for `COc1ccc(CN2CCC3(CC2)CC(=O)c2cc(/C=C/C(=O)NO)ccc2O3)cc1` [Example 33, (E)-3-{1′-(4-Methoxy-benzyl)-4-oxo-spiro[chromane-2,4′-piperidine]-6-yl}-N-hydroxy-acrylamide], the 50% inhibitory concentration (IC50) in the test on HCT-116 cells is ≤ 1000 nM; with A549 cells it was ≤ 1000 nM; in the test with K562 cells, ≤ 1000 nM; in test [1], 100 to 1000 nM.

`O=C(/C=C/c1ccc2c(c1)C(=O)CC1(CCN(C(=O)NCc3ccccc3)CC1)O2)NO` [Example 47, (E)-3-{1′-Benzylcarbamoyl-4-oxo-spiro[chromane-2,4′-piperidine]-6-yl}-N-hydroxy-acrylamide]: the 50% inhibitory concentration (IC50) with HCT-116 cells is ≥ 3000 nM; in the test with A549 cells, ≥ 3000 nM; in the test with K562 cells, ≥ 3000 nM; in test [1], 100 to 1000 nM.

For the molecule `O=C(/C=C/c1ccc2c(c1)C(=O)CC1(CCN(CCc3ccccc3)CC1)O2)NO` [Example 55, (E)-3-{1′-(2-Phenyl-ethyl)-4-oxo-spiro[chromane-2,4′-piperidine]-6-yl}-N-hydroxy-acrylamide], the half-maximal inhibitory concentration (IC50) is ≤ 1000 nM with HCT-116 cells, ≤ 1000 nM in the test on A549 cells, ≤ 1000 nM in the test on K562 cells and 100 to 1000 nM in test [1].

Take `O=C(/C=C/c1ccc2c(c1)C(=O)CC1(CCN(Cc3ccccc3Cl)CC1)O2)NO` [Example 37, (E)-3-{1′-(2-Chloro-benzyl)-4-oxo-spiro[chromane-2,4′-piperidine]-6-yl}-N-hydroxy-acrylamide]: the IC50 in the test with HCT-116 cells is 1000 to 3000 nM; in the test on A549 cells, 1000 to 3000 nM; in the test with K562 cells, 1000 to 3000 nM; in test [1], 100 to 1000 nM.

As for `O=C(/C=C/c1ccc2c(c1)C(=O)CC1(CCN(Cc3cccnc3)CC1)O2)NO` [Example 41, (E)-3-{1′-(Pyridin-3-ylmethyl)-4-oxo-spiro[chromane-2,4′-piperidine]-6-yl}-N-hydroxy-acrylamide], the IC50 in the test with HCT-116 cells is ≤ 1000 nM; in the test on A549 cells, 1000 to 3000 nM; in the test on K562 cells it was 1000 to 3000 nM; in test [1], 100 to 1000 nM.

In the case of `O=C(/C=C/c1ccc2c(c1)C(=O)CC1(CCN(Cc3cccc(Cl)c3)CC1)O2)NO` [Example 38, (E)-3-{1′-(3-Chloro-benzyl)-4-oxo-spiro[chromane-2,4′-piperidine]-6-yl}-N-hydroxy-acrylamide], the half-inhibitory concentration (IC50) is 1000 to 3000 nM in the test on HCT-116 cells, 1000 to 3000 nM with A549 cells, ≤ 1000 nM with K562 cells and 100 to 1000 nM in test [1].

With `CN1CCC2(CC1)Oc1ccc(/C=C/C(=O)NO)cc1C(=O)N2Cc1ccccc1` [Example 81, (E)-3-{1′-Methyl-3,4-dihydro-3-benzyl-4-oxo-spiro[2H-(1,3)-benzoxazine-2,4′-piperidin]-6-yl}-N-hydroxy-acrylamide], the IC50 in the test on HCT-116 cells was ≤ 1000 nM; in the test with A549 cells it was ≤ 1000 nM; in the test on K562 cells, ≤ 1000 nM; in test [1], 100 to 1000 nM.

For the molecule `CS(=O)(=O)N1CCC2(CC1)CC(=O)c1cc(/C=C/C(=O)NO)ccc1O2` [Example 43, (E)-3-{1′-Methanesulfonyl-4-oxo-spiro[chromane-2,4′-piperidine]-6-yl}-N-hydroxy-acrylamide], the IC50 with HCT-116 cells was ≥ 3000 nM; in the test on A549 cells, ≥ 3000 nM; in the test with K562 cells, ≥ 3000 nM; in test [1] it was 100 to 1000 nM.

For the molecule `CNc1ccc(CCN2CCC3(CC2)CC(=O)c2cc(/C=C/C(=O)NO)ccc2O3)cc1` [Example 63, (E)-3-{1′-[2-(4-Methylamino-phenyl)-ethyl]-4-oxo-spiro[chromane-2,4′-piperidine]-6-yl}-N-hydroxy-acrylamide], the IC50 is ≤ 1000 nM in the test with HCT-116 cells, ≤ 1000 nM with A549 cells, ≤ 1000 nM in the test on K562 cells and < 100 nM in test [1].

On to `O=C(/C=C/c1ccc2c(c1)C(=O)CC1(CCN(Cc3ccccc3)CC1)O2)NO` [Example 2, (E)-3-{1′-Benzyl-4-oxo-spiro[chromane-2,4′-piperidine]-6-yl}-N-hydroxy-acrylamide], for which the IC50 was ≤ 1000 nM in the test on HCT-116 cells, ≤ 1000 nM with A549 cells, ≤ 1000 nM in the test on K562 cells and 100 to 1000 nM in test [1].

Regarding `O=C(/C=C/c1ccc2c(c1)C(=O)N(Cc1ccccc1)C1(CCN(Cc3ccccc3)CC1)O2)NO` [Example 80, (E)-3-{1′-Benzyl-3,4-dihydro-3-benzyl-4-oxo-spiro[2H-(1,3)-benzoxazine-2,4′-piperidin]-6-yl}-N-hydroxy-acrylamide], the half-maximal inhibitory concentration (IC50) in the test with HCT-116 cells lay within 1000 to 3000 nM; in the test with A549 cells it was 1000 to 3000 nM; in the test with K562 cells, 1000 to 3000 nM; in test [1], 100 to 1000 nM.

On to `CCNC(=O)N1CCC2(CC1)CC(=O)c1cc(/C=C/C(=O)NO)ccc1O2` [Example 46, (E)-3-{1′-Ethylcarbamoyl-4-oxo-spiro[chromane-2,4′-piperidine]-6-yl}-N-hydroxy-acrylamide], for which the IC50 in the test with HCT-116 cells was ≥ 3000 nM; in the test on A549 cells, ≥ 3000 nM; in the test with K562 cells it was ≥ 3000 nM; in test [1] it was 100 to 1000 nM.
